± gives the uncertainty stated by the source.
Assay: xn = mol fraction of the nth substance listed
Settings: 101 kPa

ClC(Cl)(Cl)Cl + CCCCCCO
viscosity [mPa·s]
Settings	298.15 K	308.15 K	318.15 K
x2 = 0.0092	0.909 ± 0.009	0.786 ± 0.008	0.691 ± 0.007
x2 = 0.0374	0.941 ± 0.009	0.817 ± 0.008	0.71 ± 0.007
x2 = 0.07	0.961 ± 0.025	–	–
x2 = 0.0912	1 ± 0.01	0.865 ± 0.008	0.745 ± 0.007
x2 = 0.14	1.058 ± 0.028	–	–
x2 = 0.1545	1.11 ± 0.01	0.938 ± 0.009	0.806 ± 0.008
x2 = 0.2095	1.197 ± 0.011	1.008 ± 0.01	0.861 ± 0.008
x2 = 0.21	1.167 ± 0.031	–	–
x2 = 0.27	1.299 ± 0.034	–	–
x2 = 0.293	1.368 ± 0.013	1.127 ± 0.011	0.942 ± 0.009
x2 = 0.3554	1.533 ± 0.014	1.255 ± 0.012	1.046 ± 0.01
x2 = 0.496	1.965 ± 0.018	1.564 ± 0.015	1.273 ± 0.012
x2 = 0.5	1.931 ± 0.05	–	–
x2 = 0.6	2.317 ± 0.06	–	–
x2 = 0.6252	2.531 ± 0.023	1.957 ± 0.018	1.548 ± 0.015
x2 = 0.69	2.737 ± 0.071	–	–
x2 = 0.7459	3.091 ± 0.028	2.344 ± 0.022	1.814 ± 0.017
x2 = 0.86	3.57 ± 0.093	–	–
x2 = 0.8652	3.83 ± 0.035	2.863 ± 0.026	2.202 ± 0.02

ClC(Cl)(Cl)Cl + CCCCCO
viscosity [mPa·s]
Settings	x2 = 0.0207	x2 = 0.0826	x2 = 0.3114	x2 = 0.4575	x2 = 0.5771	x2 = 0.8017
298.15 K	0.912 ± 0.009	0.971 ± 0.009	1.306 ± 0.012	1.62 ± 0.015	1.884 ± 0.018	2.761 ± 0.025
308.15 K	0.798 ± 0.008	0.84 ± 0.008	1.03 ± 0.01	1.241 ± 0.012	1.488 ± 0.014	2.103 ± 0.02
318.15 K	0.708 ± 0.007	0.741 ± 0.007	0.886 ± 0.009	1.037 ± 0.01	1.199 ± 0.011	1.647 ± 0.015

CCOC(=O)c1ccccc1O + CCCCCOC(C)=O
Settings	viscosity [mPa·s]
298.15 K, x2 = 0.5	1.045 ± 0.01

COc1ccc(C)cc1 + CCCCCOC(C)=O
Settings	viscosity [mPa·s]
298.15 K, x1 = 0.5	0.8602 ± 0.0085

COc1cccc(C)c1 + CCCCCOC(C)=O
Settings	viscosity [mPa·s]
298.15 K, x1 = 0.5	0.8784 ± 0.0087

Source: the CheMixHub viscosity set
